Assay results from the supplement of paper PMC10331698.
± gives the standard deviation of the averaged measurements.

Key:
Experiment in all cases: level (log10 ratio to DMSO vehicle control); higher = higher biomarker level / cell amount than vehicle control
Details in all cases: in DMSO
[1] = compound: NC(=O)C(F)(F)C(F)(F)C(F)(F)C(F)F
Description: (§1)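 BioMAP Diversity Plus panel of 12 human primary cell co-culture systems (3C, 4H, LPS, SAg, BT, BF4T, BE3C, CASM3C, HDF3CGF, KF3CT, MyoF, Mphg). Compounds were added 1 h before stimulation and left for 24 h (MyoF 48 h; BT 72 h for soluble read-outs or 6 d for IgG). Biomarkers were read by ELISA, cytotoxicity by SRB, PBMC viability and proliferation by Alamar Blue. Each well value was divided by the mean of 8 DMSO control wells on the same plate and log10 transformed; duplicate blinded samples were tested at 4 concentrations.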

Octafluoroadipamide = compound: NC(=O)C(F)(F)C(F)(F)C(F)(F)C(F)(F)C(N)=O [Octafluoroadipamide]
Description: as §1

Heptafluorobutyl iodide = compound: FC(F)(F)C(F)(F)C(F)(F)CI [Heptafluorobutyl iodide]
Description: as §1

Hexafluoroamylene glycol = compound: OCC(F)(F)C(F)(F)C(F)(F)CO [Hexafluoroamylene glycol]
Description: as §1

[2] = compound: O=S(=O)(O)CCC(F)(F)C(F)(F)C(F)(F)C(F)(F)C(F)(F)C(F)(F)F [6:2 Fluorotelomer sulfonic acid]
Description: as §1

Nonafluoropentanamide = compound: NC(=O)C(F)(F)C(F)(F)C(F)(F)C(F)(F)F [Nonafluoropentanamide]
Description: as §1

[3] = compound: O=C(O)C(F)(F)C(F)(F)C(F)(F)C(F)(F)C(F)(F)C(F)(F)C(F)(F)C(F)(F)C(F)(F)C(F)F [11-H-Perfluoroundecanoic acid]
Description: as §1

| Test System | level (log10) ([1]; 6700 nM) | level (log10) ([1]; 20000 nM) | level (log10) ([1]; 60000 nM) | level (log10) (Octafluoroadipamide; 6700 nM) | level (log10) (Octafluoroadipamide; 20000 nM) | level (log10) (Octafluoroadipamide; 60000 nM) | level (log10) (Heptafluorobutyl iodide; 6700 nM) | level (log10) (Heptafluorobutyl iodide; 20000 nM) | level (log10) (Heptafluorobutyl iodide; 60000 nM) | level (log10) (Hexafluoroamylene glycol; 6700 nM) | level (log10) (Hexafluoroamylene glycol; 20000 nM) | level (log10) (Hexafluoroamylene glycol; 60000 nM) | level (log10) ([2]; 6700 nM) | level (log10) ([2]; 20000 nM) | level (log10) ([2]; 60000 nM) | level (log10) (Nonafluoropentanamide; 6700 nM) | level (log10) (Nonafluoropentanamide; 20000 nM) | level (log10) (Nonafluoropentanamide; 60000 nM) | level (log10) ([3]; 6700 nM) | level (log10) ([3]; 20000 nM) |
| --- | --- | --- | --- | --- | --- | --- | --- | --- | --- | --- | --- | --- | --- | --- | --- | --- | --- | --- | --- | --- |
| BT:sIL-17A | 0.059 ± 0.033 | 0.025 ± 0.19 | -0.0885 ± 0.32 | -0.107 ± 0.018 | -0.0535 ± 0.098 | 0.0055 ± 0.025 | 0.009 ± 0.02 | 0.009 ± 0.045 | -0.176 ± 0.11 | -0.089 ± 0.0014 | -0.0745 ± 0.0064 | 0.0015 ± 0.05 | -0.135 ± 0.05 | -0.005 ± 0.081 | -0.126 ± 0.21 | -0.145 ± 0.18 | 0.05 ± 0.064 | -0.213 ± 0.17 | 0.003 ± 0.0057 | -0.0485 ± 0.061 |
| SAg:CD69 | 0.025 ± 0.0085 | 0.0175 ± 0.005 | 0.0495 ± 0.026 | -0.0095 ± 0.011 | -0.013 ± 0.018 | 0.002 ± 0.013 | -0.0425 ± 0.043 | -0.045 ± 0.03 | -0.032 ± 0.037 | -0.039 ± 0.042 | -0.0215 ± 0.023 | -0.024 ± 0.048 | -0.0245 ± 0.059 | -0.04 ± 0.024 | -0.04 ± 0.0057 | -0.0095 ± 0.013 | -0.025 ± 0.0085 | -0.008 ± 0.0042 | -0.01 ± 0.028 | -0.0235 ± 0.047 |
| SAg:SRB | -0.0225 ± 0.0035 | -0.02 ± 0.0028 | -0.015 ± 0.021 | -0.011 ± 0.014 | -0.0065 ± 0.022 | -0.0025 ± 0.0064 | -0.007 ± 0.0099 | -0.001 ± 0.0042 | 0.002 ± 0.011 | -0.0015 ± 0.00071 | -0.004 ± 0.0028 | -0.0005 ± 0.019 | -0.012 ± 0.0057 | -0.0045 ± 0.0021 | -0.0045 ± 0.021 | -0.0025 ± 0.00071 | -0.0055 ± 0.00071 | -0.0045 ± 0.0078 | 0.0155 ± 0.005 | 0.0035 ± 0.011 |
| LPS:CD62E/E-Selectin | -0.0115 ± 0.022 | -0.023 ± 0.0014 | -0.016 ± 0.016 | -0.007 ± 0.02 | -0.0035 ± 0.016 | 0.022 ± 0.0028 | 0.005 ± 0.1 | -0.013 ± 0.0028 | 0.026 ± 0.068 | 0.023 ± 0.024 | -0.007 ± 0.023 | -0.0125 ± 0.0064 | 0.034 ± 0.021 | 0.007 ± 0.014 | 0.027 ± 0.023 | 0.003 ± 0.0042 | 0.0175 ± 0.005 | 0.0215 ± 0.029 | 0.0035 ± 0.019 | 0.0095 ± 0.025 |
| BE3C:CXCL10/IP-10 | 0.0025 ± 0.0064 | -0.0015 ± 0.016 | 0.007 ± 0.013 | -0.0275 ± 0.047 | -0.031 ± 0.03 | -0.0185 ± 0.056 | -0.0015 ± 0.0064 | -0.005 ± 0.0057 | 0.005 ± 0.013 | -0.009 ± 0.014 | -0.0115 ± 0.011 | -0.007 ± 0.02 | 0.0015 ± 0.0021 | -0.0095 ± 0.0078 | -0.0125 ± 0.018 | 0.0145 ± 0.021 | -0.005 ± 0.038 | -0.0095 ± 0.015 | -0.141 ± 0.012 | -0.874 ± 0.014 |
| BT:sIL-2 | 0.002 ± 0.058 | -0.056 ± 0.051 | 0.04 ± 0.0099 | 0.137 ± 0.073 | 0.116 ± 0.061 | 0.126 ± 0.027 | 0.001 ± 0.071 | 0.0735 ± 0.028 | -0.027 ± 0.058 | 0.0335 ± 0.022 | 0.0145 ± 0.054 | 0.0365 ± 0.056 | -0.0555 ± 0.011 | 0.0325 ± 0.018 | -0.01 ± 0.031 | 0.0345 ± 0.053 | 0.002 ± 0.033 | -0.0105 ± 0.011 | -0.0265 ± 0.013 | -0.008 ± 0.083 |
| LPS:sTNF-alpha | -0.0095 ± 0.0035 | -0.0095 ± 0.022 | -0.003 ± 0.031 | 0.047 ± 0.018 | 0.0355 ± 0.018 | 0.037 ± 0.0042 | -0.009 ± 0.017 | -0.0095 ± 0.016 | -0.009 ± 0.023 | 0.0025 ± 0.012 | -0.009 ± 0.014 | -0.001 ± 0.0099 | -0.002 ± 0.0042 | 0 ± 0.0057 | 0.0015 ± 0.0092 | 0.018 ± 0.037 | 0.0125 ± 0.0092 | -0.043 ± 0.013 | 0.0065 ± 0.0092 | 0.0135 ± 0.0035 |
| BF4T:SRB | -0.0075 ± 0.00071 | -0.0125 ± 0.011 | -0.0025 ± 0.0078 | -0.006 ± 0.0071 | -0.002 ± 0.0028 | 0.001 ± 0.0071 | 0.001 ± 0.0028 | -0.002 ± 0.0071 | 0.0015 ± 0.0064 | 0.0025 ± 0.018 | 0.002 ± 0.0085 | 0 ± 0.0057 | 0.0005 ± 0.00071 | -0.003 ± 0.0042 | -0.003 ± 0.0057 | -0.018 ± 0.0042 | -0.017 ± 0.016 | -0.019 ± 0.0028 | -0.012 ± 0.0014 | -0.103 ± 0.0092 |
| SAg:CCL2/MCP-1 | -0.0145 ± 0.026 | -0.024 ± 0.013 | 0.0115 ± 0.03 | -0.001 ± 0.0071 | 0.002 ± 0.0014 | 0.0105 ± 0.016 | -0.0095 ± 0.0078 | -0.0025 ± 0.00071 | 0.01 ± 0.011 | -0.012 | -0.002 ± 0.011 | -0.016 ± 0.0099 | -0.019 ± 0.0085 | -0.015 ± 0.0042 | 0.0035 ± 0.019 | -0.0125 ± 0.0035 | -0.0175 ± 0.012 | 0.0195 ± 0.053 | -0.0105 ± 0.022 | -0.0125 ± 0.0035 |
| BT:sIL-17F | 0.0335 ± 0.019 | -0.0275 ± 0.015 | -0.018 ± 0.023 | 0.0465 ± 0.057 | 0.073 ± 0.05 | 0.06 ± 0.082 | 0.033 ± 0.078 | 0.031 ± 0.016 | 0.029 ± 0.033 | 0.0185 ± 0.069 | 0.028 ± 0.041 | 0.05 ± 0.033 | 0.0005 ± 0.064 | 0.0725 ± 0.012 | 0.0155 ± 0.011 | -0.0305 ± 0.12 | -0.0695 ± 0.14 | -0.101 ± 0.15 | 0.0115 ± 0.0092 | -0.0225 ± 0.049 |
| BF4T:uPA | -0.001 ± 0.023 | -0.0145 ± 0.015 | -0.004 ± 0.021 | -0.0405 ± 0.0092 | -0.0325 ± 0.021 | -0.0165 ± 0.026 | -0.008 ± 0.014 | -0.0095 ± 0.022 | -0.0045 ± 0.016 | -0.0065 ± 0.021 | -0.006 ± 0.014 | 0.004 ± 0.0057 | 0.0085 ± 0.019 | -0.013 ± 0.0028 | -0.001 ± 0.018 | -0.03 ± 0.023 | 0.009 ± 0.013 | 0.025 ± 0.0014 | -0.0095 ± 0.036 | -0.051 ± 0.038 |
| BE3C:CXCL11/I-TAC | 0.005 ± 0.0028 | -0.002 ± 0.0042 | 0.002 ± 0.0057 | -0.0085 ± 0.0035 | -0.0155 ± 0.00071 | -0.014 ± 0.021 | 0.005 ± 0.048 | -0.0175 ± 0.005 | 0.0245 ± 0.025 | 0.002 ± 0.021 | 0.013 ± 0.045 | 0.035 ± 0.018 | 0.037 ± 0.028 | 0.0585 ± 0.00071 | 0.067 ± 0.018 | 0.012 ± 0.0099 | 0.01 ± 0.017 | 0.003 ± 0.027 | -0.04 ± 0.0057 | -0.826 ± 0.0085 |
| SAg:CD62E/E-Selectin | 0.005 ± 0.04 | -0.0135 ± 0.039 | 0.0155 ± 0.036 | 0.0015 ± 0.0078 | 0.0065 ± 0.022 | 0.0185 ± 0.028 | -0.0225 ± 0.026 | 0.0065 ± 0.00071 | -0.025 ± 0.014 | -0.0415 ± 0.039 | -0.0015 ± 0.0035 | -0.0135 ± 0.00071 | -0.008 ± 0.0057 | -0.007 ± 0.013 | 0.038 ± 0.013 | -0.006 ± 0.018 | -0.0075 ± 0.00071 | 0.009 ± 0.0042 | 0.007 ± 0.021 | 0.0035 ± 0.005 |
| BE3C:HLA-DR | 0.0065 ± 0.016 | 0.008 ± 0.0057 | -0.0025 ± 0.023 | -0.003 ± 0.0014 | -0.0015 ± 0.00071 | 0.0175 ± 0.037 | -0.0055 ± 0.0064 | -0.022 ± 0.024 | -0.0035 ± 0.018 | -0.0155 ± 0.0092 | -0.017 ± 0.014 | -0.019 ± 0.024 | -0.0135 ± 0.021 | -0.0175 ± 0.012 | -0.024 ± 0.0099 | -0.005 ± 0.0042 | -0.016 ± 0.0071 | -0.016 ± 0.0057 | -0.0645 ± 0.005 | -0.669 ± 0.0085 |
| LPS:CXCL8/IL-8 | -0.0055 ± 0.0035 | -0.0025 ± 0.035 | 0.016 ± 0.12 | -0.0035 ± 0.033 | 0.007 ± 0.0085 | 0.01 ± 0.013 | 0.022 ± 0.13 | 0.042 ± 0.076 | 0.087 ± 0.0071 | 0.025 ± 0.076 | 0.026 ± 0.0057 | 0.0885 ± 0.037 | 0.045 ± 0.013 | 0.072 ± 0.064 | 0.192 ± 0.1 | -0.034 ± 0.028 | -0.002 ± 0.034 | 0.032 ± 0.052 | -0.0065 ± 0.023 | 0.016 ± 0.011 |
